Where a name gives a salt, the structure may show the parent alone.
Experiments:
[1] = target: T1, human ROCK1 (Homo sapiens, UniProt Q13464); test: Measurement of Rho kinase inhibitory activity (ELISA of MBS phosphorylation); format: biochemical; details: human ROCK1, MBS substrate, 100 μM ATP, 30° C. for 10 minutes
T1 construct: His tag (N); host or cells: insect cells (Sf9)
How it was run: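 N-terminal His-tagged human ROCK1 (1-727, Sf9-expressed) phosphorylated plate-immobilized MBS in 20 mM HEPES pH 7.5, 100 μM ATP, 30° C for 10 minutes. Phospho-MBS detected by antibody ELISA (A490); IC50 is concentration giving 50% inhibition.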

[2] = tested on: rabbit normal intraocular pressure; test: Intraocular pressure reducing action; format: in vivo, Japanese white rabbit; details: Oryctolagus cuniculus, topical; 3 mM aqueous solution, 50 μl to the left eye; max IOP reduction (2, 4, 6 hours) / value immediately before administration; read-out: intraocular pressure reducing degree
How it was run: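 Japanese white rabbits (~2 kg) under topical anaesthesia received 50 μl of a 3 mM aqueous test solution in the left eye, right eye untreated. IOP read by tonometer before and at 2, 4, 6 h; maximal left–right difference divided by pre-dose IOP ×100 gives % reduction.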

[3] = tested on: TNF-α production; test: Inhibitory effect on TNF-α production in mice (LPS); format: in vivo, BALB/c mice; details: Mus musculus, 1.5 h; oral administration of 30 mg/kg, LPS 5 μg i.p. 60 minutes later, plasma after 90 minutes; read-out: TNF-α production suppressing action
Method: BALB/c mice (Japan CRJ, famale) were used as experimental animals. Each test compound was dissolved in distilled water at a concentration suitable for the examination. The weight of each mouse was measured, a test compound solution was orally administered in a volume corresponding to 10 ml/kg, and only distilled water was administered to the control group. Each group consisted of five to seven animals. LPS was dissolved in physiological saline, and intraperitoneally administered to each mouse in an amount of 5 μg. The test compound was administered first, and LPS (lipopolysaccharide, Sigma) was administered 60 minutes later. After 90 minutes, blood was collected from the abdominal large vein in the presence of heparin, and plasma was obtained by centrifugation. TNF-α content in the plasma was measured by using the ELISA method.

[4] = tested on: rat spinal canal stenosis (cauda equina compression-induced walking dysfunction) model; test: Rat spinal canal stenosis model, walking ability test; format: in vivo; details: treadmill; for walk distance compared with the solvent repetitive administration group: 14th day of repetitive administration; for Inventive compound repetitive administration group (average distance (m)): 14th day of repetitive administration started 4th day after operation, 7 or 8 animals
Text: A rat spinal canal stenosis (cauda equina compression-induced walking dysfunction) model can be prepared according to the method of Nakai, K et al. (Anesth. Analg., 94, pp. 1537-1541 (2002)) or the like. Namely, a rat is anesthetized with pentobarbital sodium, shaved on the back, and fixed in the abdominal position. After disinfection on the back with Isodine Surgical Scrub (Meiji Seika), a lumbar part is cut open along the median to expose the spine. Then, a silicone rubber of 1×4×1.5 mm (height×length×width) is inserted into the fifth lumbar vertebral canal from a small hole on the vertebral arch. Benzylpenicillin potassium (Crystalline Penicillin G Potassium Meiji, Meiji Seika) is dropped on the opened lesion and intramuscularly injected in the femoral region for the purpose of evasion of infectious diseases. The muscles and skin of the opened lesion are sutured with a ligature, and Isodine Surgical Scrub is applied to the sutured portion. Animals of sham group are also prepared according to the aforementioned method, provided that silicone rubber is not inserted.
In walking ability test, evaluation is performed by using a treadmill (Muromachi Kikai). A rat is placed on a traveling belt, adapted to the environment more than 3 minutes under a grid-electrified condition (0.04 to 4 mA), and then made to start walking from a velocity of 10 m/min, and then the velocity is increased by 5 m/min every 3 minutes. The walk is stopped, and electrical stimulation (0.04 to 4 mA) is applied to the rat which has moved to the grid for electrical stimulation provided before the traveling belt. Distance which the animal walked after the animal started the walk until the animal became unable to walk, i.e., the animal came not to walk even if a stimulation (sound, contact, electricity) was added to the animal to urge it to walk, was calculated from the walking time. Before the operation, the walking function test is carried out 3 times to perform training of walk. From the 4th day after the operation, repetitive administration of each compound of the present invention as a test compound was started, and the walking ability test was performed on the 14th day of the administration for the measurement.
Each group consisted of 7 or 8 animals, and the average distance before the administration was the average for the animals of both groups. […] It was confirmed that the compounds of the present invention were useful as medicaments for therapeutic treatment of a disease accompanied by walking dysfunction such as spinal canal stenosis.

[5] = tested on: myosin regulatory light chain of mesenteric artery; details: cited from earlier work
[6] = tested on: intraocular pressure; test: Rabbit intraocular pressure reduction enhancing action, Test Example 7-1 (combination use); format: in vivo, Japanese white rabbit; details: 19-1 compound 0.01 weight % aqueous solution 50 μL, left-right eye difference at 2, 4, 6 hours, six rabbits
Method: However, the effect is not limited to the 19-1 compound, and the ophthalmic solution concentration of the 19-1 compound is not limited to those used in this test example. Moreover, as for the test compound used for combination use, similar effect can be obtained also with the compounds of the present invention represented with the example numbers mentioned in Test Example 3.
As a test compound, the 19-1 compound was dissolved in physiological saline, and the solution was neutralized by addition of sodium hydroxide (pH 7.0 to 8.0) to prepare a 0.01 weight % aqueous solution (19-1 compound aqueous solution). As the drugs for combination use, isopropyl unoprostone (trade name: Rescula, Santen Pharmaceutical) was used as a prostaglandin-related drug, and brinzolamide hydrochloride (trade name: Azopt, Alcon Japan) was used as […], as the marketed formulations as they were.
A Japanese white rabbit having a body weight of about 2 kg was placed in a positioner and naturalized for one week before the experiment. An opthalmologic local anesthesant (Benoxil) was administered to both eyes, and then intraocular pressure before instillation was measured by using a tonometer (Classic 30, Solan). A test aqueous solution or the drug for combination use was administered to the left eye, and the right eye was not treated (control eye). The test groups consisted of (1) control group, (2) group instilled only with the 19-1 compound aqueous solution (single drug group 1), (3) group instilled only with the drug for combination use (single drug group 2), and (4) group instilled with the drug for combination use and the 19-1 compound aqueous solution (combination use group), and six rabbits were used for each group. As for the rabbits of these groups, 50 μL of physiological saline was first instilled to the control group, single drug group 1, and single drug group 2, and the drug for combination use was first instilled in the same volume to the combination use group. […] The intraocular pressure thereafter was measured for each group 2, 4 and 6 hours after the second administration of the test compound, and the difference of the measured values for the left and right eyes at each measurement time was considered an intraocular pressure reduction value of each group. The largest difference of the intraocular pressure values for the left and right eyes among those of the measured values of the measurement times was considered the maximum intraocular pressure reduction value (max ? IOP) of each drug group.

[7] = tested on: intraocular pressure; test: Rabbit intraocular pressure reduction enhancing action, Test Example 7-2 (combination use with timolol maleate); format: in vivo, Japanese white rabbit; details: Table 6; 19-1 compound 0.01 weight % aqueous solution 50 μL, Timoptol 50 μL; difference relative to control group at 1, 2, 4 hours; 12 rabbits
Method: As a test compound, the 19-1 compound was dissolved in physiological saline, and the solution was neutralized by addition of sodium hydroxide (pH 7.0 to 8.0) to prepare a 0.01 weight % aqueous solution (19-1 compound aqueous solution). As a drug for combination use, timolol maleate (trade name: Timoptol, Santen Pharmaceutical) was used as an adrenergic receptor β blocker, as the marketed formulation as it was.
A Japanese white rabbit having a body weight of about 2 kg was placed in a positioner and naturalized for one week before the experiment. An opthalmologic local anesthesant (Benoxil) was administered to both eyes, and then intraocular pressure before instillation was measured by using a tonometer (Classic 30, Solan). […] The intraocular pressure thereafter was measured for each group 1, 2 and 4 hours after the second administration of the test compound, and the difference of the measured values at each measurement time for the each group and the control group was considered an intraocular pressure reduction value of each group. The largest difference of the intraocular pressure values relative to the control group among those of the measured values of the measurement times was considered the maximum intraocular pressure reduction value (max ? IOP) of each drug group.

T1 sequence (Q13464 1-727): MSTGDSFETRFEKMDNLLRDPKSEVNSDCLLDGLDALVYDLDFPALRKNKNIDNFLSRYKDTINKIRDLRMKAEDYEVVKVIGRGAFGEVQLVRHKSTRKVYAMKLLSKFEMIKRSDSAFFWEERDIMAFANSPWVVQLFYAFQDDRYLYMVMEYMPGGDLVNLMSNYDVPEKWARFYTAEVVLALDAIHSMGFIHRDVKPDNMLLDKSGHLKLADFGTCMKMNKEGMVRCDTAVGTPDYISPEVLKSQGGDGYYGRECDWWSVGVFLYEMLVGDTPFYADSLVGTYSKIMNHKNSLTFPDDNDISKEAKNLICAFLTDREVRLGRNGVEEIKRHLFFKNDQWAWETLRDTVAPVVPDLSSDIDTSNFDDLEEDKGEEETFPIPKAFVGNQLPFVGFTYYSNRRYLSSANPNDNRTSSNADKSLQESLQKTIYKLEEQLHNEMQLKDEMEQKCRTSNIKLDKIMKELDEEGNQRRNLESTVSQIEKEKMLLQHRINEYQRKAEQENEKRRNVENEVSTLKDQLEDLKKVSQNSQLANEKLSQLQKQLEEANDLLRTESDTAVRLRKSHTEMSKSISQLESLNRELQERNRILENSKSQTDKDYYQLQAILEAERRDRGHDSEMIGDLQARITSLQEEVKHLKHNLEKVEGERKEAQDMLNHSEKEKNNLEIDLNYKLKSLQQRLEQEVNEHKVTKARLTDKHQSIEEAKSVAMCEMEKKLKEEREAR

IC50 [1] [nM] | SMILES | inhibition in vivo at 3000 µM [2] [%] | inhibition in vivo at 30 mg/kg [3] [%] | walk distance compared with the solvent repetitive administration group [4] | Inventive compound repetitive administration group (average distance (m)) [4] [m] | other results
< 1000 | Cc1cncc2cccc(S(=O)(=O)N3CC[C@H](N)C3)c12 [Example 8-1, (S)-3-Amino-1-(4-methyl-5-isoquinolinesulfonyl)pyrrolidine] | ≥ 20 | ≥ 50 | extended the walk distance | 169 | 
1000 to 3000 | CN(C)CC(=O)N[C@H]1CCN(S(=O)(=O)c2cccc3cncc(Cl)c23)C1 [Example 57-1, (S)-3-[(2-Dimethylamino)acetyl]amino-1-(4-chloro-5-isoquinolinesulfonyl)pyrrolidine] | ≥ 20 | ≥ 30 | extended the walk distance | 183 | 
 | CC1CNCCN1S(=O)(=O)c1cccc2cnccc12 (centres unmarked) [Example H-7, 1-(5-isoquinolinesulfonyl)-2-methylpiperazine] |  |  |  |  | inhibition of phosphorylation of myosin regulatory light chain [5]: inhibits the phosphorylation of myosin regulatory light chain of mesenteric artery
 | CCN[C@H]1CN(CCCOC)S(=O)(=O)c2sc(S(N)(=O)=O)cc21 [brinzolamide hydrochloride, reference compound] |  |  |  |  | Max IOP (maximum intraocular pressure reduction value) ([6]; Table 4, Azopt 50 μL): 2.3 mmHg
 | CCCCCCCC(=O)CC[C@@H]1[C@@H](C/C=C\CCCC(=O)OC(C)C)[C@@H](O)C[C@H]1O [isopropyl unoprostone, reference compound] |  |  |  |  | Max IOP (maximum intraocular pressure reduction value) ([6]; Table 5, Rescula 50 μL): 4.4 mmHg
 | CC(C)(C)NC[C@H](O)COc1nsnc1N1CCOCC1 [timolol maleate, reference compound] |  |  |  |  | Max IOP (maximum intraocular pressure reduction value) [7]: 1.9 mmHg

— US7964613B2 (Asahi Kasei Pharma Corporation, priority 2007, dated 2011)
